Experimental data reported in patent publication EP4799620A1, “ORAL PHARMACEUTICAL FORM FOR BIPHASIC RELEASE, COMPOSED OF A MULTIP[…], PROCESS FOR PREPARING SAME AND […] USE OF ORAL FORM” (Prati, Donaduzzi & Cia LTDA, priority 2023, dated 2025).
Where two headings read alike, the source gives them in different places.

Experiments:
[1] = system: patients with secondary insomnia; test: Randomized, controlled, cross-over clinical trial: questionnaires and subjective sleep perception; assay type: in vivo; settings: for Sleep latency / Total sleep time: subjective
Description: (§1) Based on the foregoing, a double-blind clinical trial was conducted to evaluate the impact of the medication on sleep quality and total sleep time, as well as to quantify the reduction in sleep latency in patients diagnosed with comorbid insomnia, through actigraphy and assessment scales.
(§2) The objective of the clinical trial was to evaluate the impact of the medication on sleep quality and total sleep time, as well as to quantify the reduction in sleep latency in patients diagnosed with comorbid insomnia, through actigraphy and assessment scales. The study was conducted with 30 patients.
TABLE 1: RESULTS OF THE ANALYSIS OF THE QUESTIONNAIRES AND OF THE SUBJECTIVE SLEEP PERCEPTION.

[2] = system: patients with secondary insomnia; test: Randomized, controlled, cross-over clinical trial: actigraphy analysis; assay type: in vivo
Description: as §1, §2
Of the 29 patients, 24 correctly completed the proposed actigraphy usage period. TABLE 2: ACTIGRAPHY ANALYSIS RESULTS.

[3] = in water; cited from earlier work
[4] = cited from earlier work
[5] = system: pregnant women; settings: 50 mg/day; 67 pregnant women; third trimester of pregnancy; cited from earlier work
[6] = system: patients with Alzheimer's disease; settings: 50 mg/day; cited from earlier work
[7] = 50 mg/day; double-blind controlled study; cited from earlier work
[8] = system: postmenopausal women; settings: trazodone 50-100 mg/day; cited from earlier work
[9] = system: healthy volunteers; settings: daily doses of 50 and 100 mg; cited from earlier work

## O=c1n(CCCN2CCN(c3cccc(Cl)c3)CC2)nc2ccccn12 [Trazodone]
[1]; 50 mg, Consultation 1
  Hamilton Depression Scale: 16.31±8.60@#
  Insomnia Severity Scale: 19.88±4.04@#
  Nights with awakenings/week: 3.00±0.00@
  Pittsburgh Sleep Quality Questionnaire: 14.13±3.11@#
[1]; 50 mg, Consultation 2
  Hamilton Depression Scale: 11.88±6.06@
  Insomnia Severity Scale: 17.69±6.18&*
  Nights with awakenings/week: 2.40±1.05
  Pittsburgh Sleep Quality Questionnaire: 11.19±2.90
[1]; 50 mg, Consultation 3
  Hamilton Depression Scale: 11.13±6.98
  Insomnia Severity Scale: 11.14±7.24#&
  Nights with awakenings/week: 2.00±1.17
[1]; 50 mg, Consultation 4
  Hamilton Depression Scale: 7,875±4.28
  Insomnia Severity Scale: 7.50±4.48@#
  Nights with awakenings/week: 1.06±1.39@#
  Pittsburgh Sleep Quality Questionnaire: 9.81±3.50@
[1]; 75 mg, Consultation 1
  Hamilton Depression Scale: 18.31±11.41@
  Insomnia Severity Scale: 21.08±3.84@
  Nights with awakenings/week: 2.84±0.55
  Pittsburgh Sleep Quality Questionnaire: 13.54±3.43@
[1]; 75 mg, Consultation 2
  Hamilton Depression Scale: 14.85±6.65
  Insomnia Severity Scale: 19.75±3.84
  Nights with awakenings/week: 3.00±0.00
  Pittsburgh Sleep Quality Questionnaire: 12.77±2.20
[1]; 75 mg, Consultation 3
  Hamilton Depression Scale: 12.5±6.81
  Insomnia Severity Scale: 16.69±8.34
  Nights with awakenings/week: 2.58±0.90
  Pittsburgh Sleep Quality Questionnaire: 13.58±3.08
[1]; 75 mg, Consultation 4
  Hamilton Depression Scale: 8.08±3.57@#
  Insomnia Severity Scale: 7,33±5,61@#
  Nights with awakenings/week: 1.38±1.55
  Pittsburgh Sleep Quality Questionnaire: 9.91±3.26@#
[1]; no dose stated, Consultation 1
  Hamilton Depression Scale: 17,21±9,82@#
  Insomnia Severity Scale: 20.41±3.93@#
  Nights with awakenings/week: 2.93±0.37@
  Pittsburgh Sleep Quality Questionnaire: 13.86±3.21@
  Sleep latency: 69,59±74,51@ min.
  Total sleep time: 277.20±109.20@ min.
[1]; no dose stated, Consultation 2
  Hamilton Depression Scale: 13.21±6.40&*
  Insomnia Severity Scale: 18.57±5.32&*
  Nights with awakenings/week: 2.67±0.82
  Pittsburgh Sleep Quality Questionnaire: 11.9±2.69
  Sleep latency: 51.76 ± 36.18 min
  Total sleep time: 291.70 ± 81.33 min
[1]; no dose stated, Consultation 3
  Hamilton Depression Scale: 11,74±6,80#&
  Insomnia Severity Scale: 13.81±8.14#&
  Nights with awakenings/week: 2.26±1.08
  Pittsburgh Sleep Quality Questionnaire: 12.59±3.68
  Sleep latency: 51.76 ± 50.13 min
  Total sleep time: 322.80 ± 94.07 min
[1]; no dose stated, Consultation 4
  Hamilton Depression Scale: 7.96±3.93@*
  Insomnia Severity Scale: 7.42±4.90@#
  Nights with awakenings/week: 1.20±1.45@#
  Pittsburgh Sleep Quality Questionnaire: 9.85±3.34@#
  Sleep latency: 29,69±25,24@# min.
  Total sleep time: 341.80±110.00@ min.
[1]; 50mg, Consultation 1
  Sleep latency: 50.5 ± 40.46 min
  Total sleep time: 273.80 ± 95.42 min
[1]; 50mg, Consultation 2
  Sleep latency: 37.19 ± 20.00 min
  Total sleep time: 307.50 ± 75.50 min
[1]; 50mg, Consultation 3
  Sleep latency: 42,56±47,20 min.
  Total sleep time: 348.80 ± 103.30 min
[1]; 50mg, Consultation 4
  Sleep latency: 26.31 ± 25.20 min
[1]; 75mg, Consultation 1
  Sleep latency: 93.08 ± 99.11 min
  Total sleep time: 281.50 ± 128.20 min
[1]; 75mg, Consultation 2
  Sleep latency: 69.69 ± 43.86 min
  Total sleep time: 272.30 ± 87.00 min
[1]; 75mg, Consultation 3
  Sleep latency: 63.08 ± 53.17 min
  Total sleep time: 290.80 ± 72.85 min
[1]; 75mg, Consultation 4
  Sleep latency: 33.85 ± 25.67 min
  Total sleep time: 378.50 ± 89.61 min
[2]; 50mg, Actigraphy 1
  Awakenings: 12.97±3.85@
  Sleep latency: 6.13 ± 5.56 min
  Total sleep time: 50mg 461.80±106.60 min.
  WASO: 84.20 ± 26.09 min
[2]; 50mg, Actigraphy 2
  Awakenings: 10.68±3.44
  Sleep latency: 7.16 ± 7.48 min
  Total sleep time: 479.90 ± 95.25 min
  WASO: 75.38 ± 29.34 min
[2]; 50mg, Actigraphy 3
  Awakenings: 11.35±3.59@
  Sleep latency: 4.40 ± 4.40 min
  Total sleep time: 476.00 ± 91.94 min
  WASO: 73 ± 26.45 min
[2]; 75mg, Actigraphy 1
  Awakenings: 12.64±2.57
  Sleep latency: 6.77 ± 5.96 min
  Total sleep time: 75 mg 486.00±151.70 min.
  WASO: 82.33 ± 20.21 min
[2]; 75mg, Actigraphy 2
  Awakenings: 11.37±1.56
  Sleep latency: 5.28 ± 4.71 min
  Total sleep time: 514.10 ± 166.50 min
  WASO: 88.29 ± 20.62 min
[2]; 75mg, Actigraphy 3
  Awakenings: 11.71±2.54£2
  Sleep latency: 7.33 ± 7.90 min
  Total sleep time: 498.60 ± 126.30 min
  WASO: 83.44 ± 32.30 min
[2]; no dose stated, Actigraphy 1
  Awakenings: 12.84±3.37@
  Sleep latency: 6.37 ± 5.60 min
  Total sleep time: 470.90 ± 122.70 min
  WASO: 84.20 ± 26.09 min
[2]; no dose stated, Actigraphy 2
  Awakenings: 10.92±2.89
  Sleep latency: 6.47 ± 6.51 min
  Total sleep time: 491.90 ± 121.50 min
[2]; no dose stated, Actigraphy 3
  Awakenings: 11.49±3.186@#
  Sleep latency: 5.50 ± 5.97 min
  Total sleep time: 484.50 ± 104.00 min
  WASO: 73.00 ± 26.45 min
[3]
  pKa: 6.74
[4]; above its pKa, neutral and basic conditions
  solubility: very low
[4]; acidic medium, pH of the medium below its pKa
  solubility: highly soluble
[5]
  Sedative effects for the treatment of insomnia: efficacy
[6]
  treatment of insomnia: safe and effective
[7]
  maintaining sleep: effective
[8]
  sleep quality and sexual dysfunction: improved
[9]
  slow waves during sleep: increased

## CN1CCN(C(=O)OC2c3nccnc3C(=O)N2c2ccc(Cl)cn2)CC1 (stereo not drawn) [zopiclone]
[8]
  sleep quality and sexual dysfunction: improved
